pIC50, pKi: −log10 of the molar value. ≈ marks a conversion by molar mass, not a printed value. Where “and” joins values, the source holds several entries; their conditions need not be identical. Equal values may be shown once. Read-outs that look alike come from different tables or passages of the source.
Tests used:
[1] = system: Group D Streptococci (ATCC-12959); assay: MIC, micro dilution method; type: cell-based
Procedure: (§1) The disk diffusion method was used for the preliminary antibacterial evaluation of 1-pyridylimidazo[1,5-a]pyridine derivatives. The MIC50 of these derivatives, showing inhibition in the preliminary tests, were further determined by the microtitre plate technique using micro dilution method. In brief, the bacterial strains (S. aureus, P. vulgaris, Group D Streptococci, Bacillus sp., E. coli, P. aeruginosa and S. morganii)) were grown and diluted to 2×10^5 colony-forming units (CFU)/ml in sodium phosphate buffer (SPB) containing 0.03% Luria–Bertani (LB) broth. The synthesized derivatives were dissolved in DMSO and their serial dilution was performed in 50 µL of LB medium in 96-well microtitre plate to achieve the required concentrations (0.1–10 µg/ml) with bacterial inoculums (5×10^4 CFU per well). DMSO was taken as negative control and Ceftriaxone and clotrimazole were taken as positive control. After incubation at 37°C overnight, the MICs were taken as the lowest inhibitor concentration at which the bacterial growth was inhibited. The average of three values was calculated and that was the MIC for the test material and bacterial strain.
(§2) For the agar plate count method, 25 µL aliquots of bacteria at 1×10^5 CFU/ml in SPB containing 0.03% LB broth were incubated with 25 µL of diluted compounds for 2 h at 37°C. The mixtures of bacteria and compounds were serially diluted 10-fold with SPB and plated on LB plates that were incubated at 37°C overnight. Bacterial colonies were enumerated the following day.

[2] = system: Serratia morganii (ATCC- 31665); assay: MIC, micro dilution method; type: cell-based; conditions: ATCC31665
Procedure: as §1, §2

papain [3] = molecular target: T1, papain (Carica papaya, UniProt P00784); assay: Cysteine protease inhibitory activity, papain with Bz-DL-Arg-pNA substrate; type: biochemical; conditions: for Type of inhibition: Lineweaver–Burk plot; for pIC50: papain
T1 construct: To solutions of active papain (final concentration: 0.05 mM); purchased Sigma Chemical Co., St. Louis, MO, USA
T1 sequence (P00784 134-345): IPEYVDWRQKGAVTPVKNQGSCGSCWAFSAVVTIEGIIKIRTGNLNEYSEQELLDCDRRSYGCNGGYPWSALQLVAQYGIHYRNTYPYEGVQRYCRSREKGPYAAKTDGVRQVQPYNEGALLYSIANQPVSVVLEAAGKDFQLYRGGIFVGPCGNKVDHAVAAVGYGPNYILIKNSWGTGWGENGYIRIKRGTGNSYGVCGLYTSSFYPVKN
Procedure: The capacity of the 1-pyridylimidazo[1,5-a]pyridine derivatives to inhibit cysteine proteases was tested using papain as the model enzyme. The proteolytic activity of the reaction mixtures was determined using Bz-DL-Arg-pNA as the chromogenic substrate. To solutions of active papain (final concentration: 0.05 mM) were added concentrated solutions of the different derivatives to final concentrations of 0.2 mM. […] The same procedure was used at 32°C and 42°C for thermodynamics studies. The kinetic parameters for the substrate hydrolysis were determined by measuring the initial rate of enzymatic activity. The inhibition constant Ki was determined by Dixon method and also by the Lineweaver–Burk equation. The Km value was calculated from the double-reciprocal equation by fitting the data into the computer software Origin 6.1. The Lineweaver–Burk plot was used to determine the types of inhibition. For the kinetic analysis and rate constant determinations, the assays were carried out in triplicate, and the average value was considered throughout this work.

papain [4] = molecular target: T1, papain; assay: Thermodynamics analysis of papain inhibition (Van't Hoff); type: biochemical; conditions: Value at 37°C
Procedure: Free energy changes of inhibition of papain against 1- substituted pyridylimidazo[1,5-a] pyridine derivatives (ΔG) were determined by the equation, [drawing 1] (1)
Temperature dependence of the inhibition constants was used to determine the thermodynamic parameters. Changes in enthalpy (ΔH) were determined from the Van’t Hoff plots by using the equation, [drawing 2] (2)
Where ΔH is enthalpy change, R is gas constant, ΔS is entropy change and T is the absolute temperature. The entropy change was obtained from the equation, [drawing 3] (3)

[5] = system: Bacillus spp. (ATCC-14593); assay: MIC, micro dilution method; type: cell-based; conditions: ATCC14593; Bacillus sp.
[6] = system: Pseudomonas aeruginosa (ATCC-27853); assay: MIC, micro dilution method; type: cell-based; conditions: ATCC27853
Procedure: as §1, with “strain. […]” for “strain.”

[7] = system: Bacillus spp. (ATCC-14593); assay: MIC, micro dilution method; type: cell-based; conditions: ATCC14593; Bacillus sp.; remark: listed apart in the source
Procedure: as §1, with “strain. […]” for “strain.”

[8] = system: Escherichia coli (ATCC-25922); assay: MIC, micro dilution method; type: cell-based; conditions: ATCC25922, E. coli
Procedure: as §1, with “strain. […]” for “strain.”

[9] = system: Proteus vulgaris (ATCC-29905); assay: MIC, micro dilution method; type: cell-based; conditions: ATCC29905, P. vulgaris
Procedure: as §1, with “strain. […]” for “strain.”

[10] = system: Staphylococcus aureus (ATCC-25923); assay: MIC, micro dilution method; type: cell-based; conditions: ATCC25923, S. aureus
Procedure: as §1, with “strain. […]” for “strain.”

[11] = system: Group D Streptococci (ATCC-12959); assay: MBC, sub cultivation from MIC plate; type: cell-based
Procedure: (§3) After having determined the MICs, bacterial strains from the wells of the microtitre plate with no visible bacterial growth were removed for serial sub cultivation of 2 µl into another new microtitre plate containing 100 µl of broth per well and further incubated for 24 h. The lowest concentration with no visible growth was defined as MBC [28], indicating 99.5% killing of the original inoculum. The absorbance of each well was measured at a wavelength of 620 nm by Microplate Manager 4.0 (Bio-Rad laboratories) and compared with a blank. Solvent (DMSO) was used as a negative control. Three replicates were done for each compound and experiment was repeated two times.

[12] = system: Pseudomonas aeruginosa (ATCC-27853); assay: MBC, sub cultivation from MIC plate; type: cell-based
Procedure: as §3

[13] = system: Bacillus spp. (ATCC-14593); assay: MBC, sub cultivation from MIC plate; type: cell-based; conditions: ATCC14593, Bacillus sp.
Procedure: as §3

[14] = system: Escherichia coli (ATCC-25922); assay: MBC, sub cultivation from MIC plate; type: cell-based; conditions: ATCC25922, E. coli
Procedure: as §3

[15] = system: Proteus vulgaris (ATCC-29905); assay: MBC, sub cultivation from MIC plate; type: cell-based; conditions: ATCC29905, P. vulgaris
Procedure: as §3

[16] = system: Staphylococcus aureus (ATCC-25923); assay: MBC, sub cultivation from MIC plate; type: cell-based; conditions: ATCC25923, S. aureus
Procedure: as §3

[17] = system: Serratia morganii (ATCC- 31665); assay: MBC, sub cultivation from MIC plate; type: cell-based
Procedure: as §3

Row | Structure (SMILES) | MIC50 [1] | MIC90 [1] | MIC50 [2] | MIC90 [2] | pKi (papain [3]; 32°C) | pKi (papain [3]; 37°C) | pKi (papain [3]; 42°C) | Type of inhibition (papain [3]) | pIC50 (papain [3]) | ΔG (free energy of binding) (papain [4]) | ΔS (entropy change) (papain [4]) | MIC90 [5] | MIC50 [6] | MIC90 [6] | MIC50 [7] | MIC50 [8] | MIC90 [8] | MIC50 [9] | MIC90 [9] | MIC50 [10] | further results
1 | Clc1ccccc1-c1nc(-c2ccccn2)c2ccccn12 [Compound 3c, 1-(2-pyridyl)-3-(2-chlorophenyl) imidazo[1,5-a]pyridine] | 0.9 µg/mL (≈ 2.94 µM) | 1.7 µg/mL (≈ 5.56 µM) | 1 µg/mL (≈ 3.27 µM) | 1.9 µg/mL (≈ 6.21 µM) | 4.03 | 4.05 | 4.07 | Non -Competitive | 4.02 | −5.71 Kcalmol^−1 and −5.71(±0.27) Kcalmol^−1 | 69.88 (±2.65) Jmol-K^−1 | 1.7 µg/mL (≈ 5.56 µM) | 1.2 µg/mL (≈ 3.92 µM) | 2.2 µg/mL (≈ 7.19 µM) | 0.9 µg/mL (≈ 2.94 µM) | 0.6 µg/mL (≈ 1.96 µM) | 1.1 µg/mL (≈ 3.6 µM) | 1 µg/mL (≈ 3.27 µM) | 1.9 µg/mL (≈ 6.21 µM) | 1.2 µg/mL (≈ 3.92 µM) | MIC90 [10]: 2.4 µg/mL (≈ 7.85 µM); MBC ([11]; read-out: MBC50): 1.8 µg/mL (≈ 5.89 µM); MBC ([11]; read-out: MBC90): 3.4 µg/mL (≈ 11.1 µM); MBC ([12]; ATCC27853, read-out: MBC50): 2.4 µg/mL (≈ 7.85 µM); MBC ([12]; ATCC27853, read-out: MBC90): 4 µg/mL (≈ 13.1 µM); MBC ([13]; read-out: MBC50): 1.9 µg/mL (≈ 6.21 µM); MBC ([13]; read-out: MBC90): 3.8 µg/mL (≈ 12.4 µM); MBC ([14]; read-out: MBC50): 1.2 µg/mL (≈ 3.92 µM); MBC ([14]; read-out: MBC90): 2.3 µg/mL (≈ 7.52 µM); MBC ([15]; read-out: MBC50): 2.2 µg/mL (≈ 7.19 µM); MBC ([15]; read-out: MBC90): 4.3 µg/mL (≈ 14.1 µM); MBC ([16]; read-out: MBC50): 2.4 µg/mL (≈ 7.85 µM); MBC ([16]; read-out: MBC90): 4.7 µg/mL (≈ 15.4 µM); MBC ([17]; ATCC31665, read-out: MBC50): 2.1 µg/mL (≈ 6.87 µM); MBC ([17]; ATCC31665, read-out: MBC90): 4.1 µg/mL (≈ 13.4 µM)
2 | CC(C)(C)c1cc(-c2nc(-c3ccccn3)c3ccccn23)cc(C(C)(C)C)c1O [Compound 3d, 1-(2-pyridyl)-3-(3,5-di-tert-butyl-4-hydroxyphenyl) imidazo[1,5-a]pyridine] | 1 µg/mL (≈ 2.5 µM) | 1.9 µg/mL (≈ 4.76 µM) | 1.1 µg/mL (≈ 2.75 µM) | 2.1 µg/mL (≈ 5.26 µM) | 3.96 | 4.00 | 4.05 | Non -Competitive | 4.02 | −5.64 Kcalmol^−1 and −5.64(±0.24) Kcalmol^−1 | 59.73(±1.93) Jmol-K^−1 | 2.6 µg/mL (≈ 6.51 µM) | 1.2 µg/mL (≈ 3 µM) | 2 µg/mL (≈ 5.01 µM) | 1.4 µg/mL (≈ 3.5 µM) | 1.2 µg/mL (≈ 3 µM) | 2.3 µg/mL (≈ 5.76 µM) | 0.9 µg/mL (≈ 2.25 µM) | 1.7 µg/mL (≈ 4.25 µM) | 1.2 µg/mL (≈ 3 µM) | ΔH (enthalpy change) (papain [4]; Van't Hoff plot): −5.2 (±0.84) KJmol^−1; MIC90 [10]: 2.3 µg/mL (≈ 5.76 µM); MBC ([11]; read-out: MBC50): 2.3 µg/mL (≈ 5.76 µM); MBC ([11]; read-out: MBC90): 4.4 µg/mL (≈ 11 µM); MBC ([12]; ATCC27853, read-out: MBC50): 2.4 µg/mL (≈ 6.01 µM); MBC ([12]; ATCC27853, read-out: MBC90): 4.4 µg/mL (≈ 11 µM); MBC ([13]; read-out: MBC50): 2.5 µg/mL (≈ 6.26 µM); MBC ([13]; read-out: MBC90): 4.7 µg/mL (≈ 11.8 µM); MBC ([14]; read-out: MBC50): 2.5 µg/mL (≈ 6.26 µM); MBC ([14]; read-out: MBC90): 4.9 µg/mL (≈ 12.3 µM); MBC ([15]; read-out: MBC50): 1.7 µg/mL (≈ 4.25 µM); MBC ([15]; read-out: MBC90): 3.4 µg/mL (≈ 8.51 µM); MBC ([16]; read-out: MBC50): 2.6 µg/mL (≈ 6.51 µM); MBC ([16]; read-out: MBC90): 5.2 µg/mL (≈ 13 µM); MBC ([17]; ATCC31665, read-out: MBC50): 2.4 µg/mL (≈ 6.01 µM); MBC ([17]; ATCC31665, read-out: MBC90): 4.4 µg/mL (≈ 11 µM)

Source: publication PMC3734177, “Design, Synthesis, Evaluation and Thermodynamics of 1-Substituted Pyridylimidazo[1,5-a]Pyridine Derivatives as Cysteine Protease Inhibitors” (PLoS ONE, 2013)
